# According to patent US12350247B2, “Use of APE1/Ref-1 inhibitors for treatment of retinal diseases” (Indiana University Research and Technology Corporation, priority 2017, dated 2025):
# Tests used:
# Pa03C [1] = assay: Monolayer cytotoxicity under hypoxia (alamarBlue); assay type: cell-based; conditions: Homo sapiens, N = 3, read-out: LC50 (the source's name)
# Excerpt: (§1) To determine target selectivity, analogs of APX3330, APX2009 and APX2014, and an analog of SLC-0111, FC12-531A, were used.
# Panc10.05 [2] = assay: Monolayer cytotoxicity under hypoxia (alamarBlue); assay type: cell-based; conditions: Homo sapiens, Panc1005, Panc10.05, N = 3, read-out: LC50 (the source's name)
# Excerpt: as §1
# [3] = tested on: HCT-116 colon cancer cells; assay: Killing of colon cancer cells by APX3330 combined with CPI-613 (Example 4); assay type: cell-based, human; conditions: 0.2, 0.8, 1.6, 3.1, 6.3 μM APX3330 combined with 100 and 75 μM CPI-613
# Protocol: Standard 3D co-culture assays as described in Example 2 were used to evaluate the cytotoxicity of the combination on tumor cells as well as cancer-associated fibroblasts.
# As shown in FIGS. 15A-15C, there was greater than 50% killing of HCT-116 colon cancer cells using 0.2, 0.8, 1.6, 3.1, 6.3 μM APX3330 when combined with 100 and 75 μM CPI-613.
# [4] = tested on: human carcinoma colon cell line HCT-116; assay: Alamar blue cytotoxicity combination assay (CalcuSyn); assay type: cell-based
# Protocol: HTC-116 (Yunhua Liu) was seeded in a 96-well tissue culture plate at 2000 cells/well in DMEM+10% FBS and grown overnight at 37° C., 5% CO2. Drug Media DMEM+5% FBS was added at dosages of APX3330 (Apexian) in a 5-point spread from 75 uM to 6.3 uM and spiked with CPI-613 (Apexbio Technology) at 75 uM, or 50 uM, or alone for single agent. Cells were incubated for 72 hours at 37° C., 5% CO2. Media was exchanged with DMEM+5% FBS+10% Alamar blue fluorescent cell viability indicator (INVITROGEN™) and incubated 4 hours at 37° C., 5% CO2 and then read on a fluorescent reader (SYNERGY™ H4 BioTek). […] depicts Chou-Talalay Index (CI) of dose combinations (CalcuSyn). FIG. 32E depicts synergistic drug combinations (CalcuSyn) of APX3330 spiked with 50 uM CPI-613 or 75 uM CPI-613. […] Data shown is the average of 3 separate cytotoxicity assays; each assay normalized to media only control.
# HTC-116 (Yunhua Liu) was seeded in a 96-well tissue culture plate at 2000 cells/well in DMEM+10% FBS and grown overnight at 37° C., 5% CO2. Drug Media DMEM+5% FBS was added at dosages of APX3330 (Apexian) from 100 uM to 0.4 uM in a 10-point spread and spiked with CPI-613 (Apexbio Technology) at 100 uM, or 75 uM, or alone for single agent. Cells were incubated for 72 hours at 37° C., 5% CO2. Media was exchanged with DMEM+5% FBS+10% Alamar blue fluorescent cell viability indicator (INVITROGEN™) and incubated 4 hours at 37° C., 5% CO2 and then read on a fluorescent reader (SYNERGY™ H4 BioTek). […] FIG. 33D depicts Chou-Talalay Index (CI) of dose combinations (CalcuSyn). FIG. 33E depicts synergistic drug combinations (CalcuSyn) of APX3330 spiked with 100 uM CPI-613 or 75 uM CPI-613. […] Data shown is the average of 3 separate cytotoxicity assays; each assay normalized to media only control.
# HTC-116 (Yunhua Liu) was seeded in a 96-well tissue culture plate at 2000 cells/well in DMEM+10% FBS and grown overnight at 37° C., 5% CO2. Drug Media DMEM+5% FBS was added at dosages of APX2014 (Apexian) in a 5-point spread from 25 uM to 1.6 uM and spiked with CPI-613 (Apexbio Technology) at 75 uM, or 50 uM, or alone for single agent. Cells were incubated for 72 hours at 37° C., 5% CO2. Media was exchanged with DMEM+5% FBS+10% Alamar blue fluorescent cell viability indicator (INVITROGEN™) and incubated 4 hours at 37° C., 5% CO2 and then read on a fluorescent reader (SYNERGY™ H4 BioTek). […] FIG. 34D depicts Chou-Talalay Index (CI) of dose combinations (CalcuSyn). FIG. 34E depicts synergistic drug combinations (CalcuSyn) of APX2014 spiked with 50 uM CPI-613 or 75 uM CPI-613. Drug combination synergy could not be ascertained at APX2014 dosages when spiked with 50 uM CPI-613. […] Data shown is the average of 3 separate cytotoxicity assays; each assay normalized to media only control.
# HTC-116 (Yunhua Liu) was seeded in a 96-well tissue culture plate at 2000 cells/well in DMEM+10% FBS and grown overnight at 37° C., 5% CO2. Drug Media DMEM+5% FBS was added at dosages of APX3330 (Apexian) from 100 uM to 0.4 uM in a 10-point spread and spiked with CB-839 (Sigma-Aldrich) at 1000 nM, or 500 nM, or alone for single agent. Cells were incubated for 72 hours at 37° C., 5% CO2. Media was exchanged with DMEM+5% FBS+10% Alamar blue fluorescent cell viability indicator (INVITROGEN™) and incubated 4 hours at 37° C., 5% CO2 and then read on a fluorescent reader (SYNERGY™ H4 BioTek). FIG. 35A depicts APX3330 and CB-839 single agent effects. FIG. 35B depicts APX3330 and CB-839 synergistic combo effects. […] FIG. 35E depicts synergistic drug combinations (CalcuSyn) of APX3330 spiked with 1000 nM CB-839 or 500 nM CB-839 (5-pt only). […] Data shown is the average of 3 separate cytotoxicity assays; each assay normalized to media only control.
# 10.05 cells = assay: Intracellular pH assay (pHrodo Red AM) in hypoxic 10.05 cells; assay type: cell-based, human; conditions: 0.2% O2 48 hrs; up to 50 μM APX3330, 100 μM SLC-0111; 8 APX2009, 5 μM APX2014
# Excerpt: Therefore, the APX3330 analogs, APX2009 and APX2014, were used to determine whether APE1/Ref-1 redox inhibition alone can shift intracellular pH in hypoxic PDAC cells given a sufficiently potent inhibitor.
# Panc10.05 [5] = assay: 3D tumor spheroid culture growth (fluorescence intensity); conditions: read-out: LC50; 3D Cultures, Tumor Alone, Panc10.05, D12 curves
# Pa03C [6] = assay: as above
structure (smiles),measurement,setting,value
CCCCCCCCC/C(=C\C1=C(C)C(=O)C(OC)=C(OC)C1=O)C(=O)O [APX3330],CC50,Pa03C [1],50.2 µM
same,CC50,Panc10.05 [2],40.3 µM
same,killing of HCT-116 colon cancer cells,[3],greater than 50%
same,"drug combination synergy (Chou-Talalay, CalcuSyn)","[4]; APX3330 75 uM and 50 uM spiked with 50 uM CPI-613, 5-point spread",synergy was observed
same,"drug combination synergy (Chou-Talalay, CalcuSyn)","[4]; APX3330 100 uM-12.5 uM spiked with 75 uM CPI-613, 10-point spread",Synergy was observed
same,"drug combination synergy (Chou-Talalay, CalcuSyn)",[4]; APX3330 100 uM-25 uM spiked with 1000 nM CB-839,synergy was observed
same,"drug combination synergy (Chou-Talalay, CalcuSyn)",[4]; APX3330 100 uM-50 uM spiked with 500 nM CB-839,Synergy was observed
same,"drug combination synergy (Chou-Talalay, CalcuSyn)","[4]; all APX3330 dosages (100 uM to 0.4 uM) spiked with 100 uM CPI-613, 10-point spread",synergy was observed
same,"drug combination synergy (Chou-Talalay, CalcuSyn)","[4]; all but one APX3330 dosage (6.3 uM), spiked with 75 uM CPI-613, 5-point spread",Synergy was observed
same,effect on intracellular pH as single agent,10.05 cells,did not affect
same,CC50,Panc10.05 [5],44.5 µM
same,effect of gemcitabine with APX3330 on tumor,"Pa03C [6]; Pa03C in co-culture with CAFs, APX3330 50 μM",dose-dependent combination effect
same,CC50,"Pa03C [6]; read-out: LC50, 3D Cultures, Tumor Alone, Pa03C, D12 curves",37.9 µM
